Holding throughout (experiment): NCI-60 cell line screen, 48 h
The subject of assay [1] is HCC-2998 colon.
Assay [2] has as its system HL-60(TB) leukemia.
Assay [3] has as its system LOX IMVI melanoma.
The test system of assay [4] is OVCAR-4 ovarian.
The test system of assay [5] is SF-295 CNS.
In assay [6] the test system is SN12C renal.
The subject of assay [7] is U251 CNS.
Assay [8] concerns UO-31 renal.
For assay [9], the system named is HCT-116 colon.
The subject of assay [10] is MDA-MB-435.

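Protocol summary: plate cells (96-well), add compound at 5 concentrations, incubate 48 h, interpolate endpoints linearly. Abbreviation: GI50, concentration required for 50% inhibition of growth. TGI: concentration producing complete growth inhibition.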 Some results are limits rather than exact numbers.

Take `COC(=O)C1=C(C(=O)OC)C2=S(SC3=C2CCCC3)S1` (configuration not stated): the TGI in assay [1] was over 100 µM; in assay [2] it was 30.9 µM; in assay [3], 7.05 µM; in assay [4], over 100 µM; in [5], over 100 µM; in assay [6], over 100 µM. The TGI in assay [7] was 70.1 µM; in assay [8], over 100 µM.
In the case of `CC(C)=CCc1cc2c(cc1O)OC[C@H]1c3cc4c(cc3O[C@@H]21)OCO4`, the TGI in assay [9] is 32.2 µM; in assay [2], 71.9 µM; in assay [3] it was 31.7 µM; in assay [10] it was 91.9 µM; in assay [4], over 100 µM; in assay [5], over 100 µM. Moreover, the TGI in assay [7] and in assay [8] was over 100 µM in each case.
As for `C[Si](C)(C)/C(I)=C/CO`, the TGI was 27.5 µM in assay [9]; 42.1 µM in assay [3]; over 100 µM in assay [4]; 58.3 µM in assay [5]; 64.7 µM in assay [6]; 36.7 µM in assay [7]. Moreover, the TGI in [8] turned out to be 71.5 µM.
As to `COc1ccc(-c2nnc(N3CCN(C(=O)CN4CCN(c5ccccc5)CC4)CC3)nc2-c2ccc(OC)cc2)cc1`, the GI50 in assay [9] was 3.19 µM; in assay [2] it was 1.89 µM; in assay [3] it was 5.78 µM; in [10], 6.09 µM; in assay [4] it was 6.36 µM; in assay [5], 5.83 µM. Further, the results for the GI50 in assay [6], in assay [7] and in [8] were 2.85 µM, 4.14 µM and 1.91 µM, respectively. In addition, the TGI in assay [9] is over 100 µM; in assay [2] it was 5.56 µM; in [3], over 100 µM; in assay [10], over 100 µM; in assay [4] it was over 100 µM; in assay [5], 47.7 µM. Besides, the TGI in assay [6], in [7] and in assay [8] was over 100 µM each time.
As to `O=c1[nH]c2ccc(O)cc2o1`, the TGI in assay [1], in [9], in assay [2], in assay [4], in assay [5] and in [6] was over 100 µM each time. Further, the TGI in assay [7] and in assay [8] was over 100 µM throughout.
Take `[N-]=[N+]=N/C1=C/CCCCC(=O)C1`: the TGI in assay [1], in assay [2], in assay [3], in assay [4], in assay [6] and in assay [8] was over 100 µM throughout.
As to `CN(C)CCSc1cc(-c2ccccc2)c2ccccc2n1`, the TGI is 20.4 µM in assay [9]; over 100 µM in [2]; 26.6 µM in assay [3]; 22.1 µM in assay [10]; 28 µM in [5]; 32.2 µM in assay [6]. Moreover, the TGI stood at 22.5 µM in assay [7] and 23 µM in [8].
`COc1cc(/C=C\c2cc(OC)c(OC)c(OC)c2)cc(N/C=C\C(=O)c2cc(OC)c(OC)c(OC)c2)c1OC`: the GI50 in assay [1] is 8.92 µM; in assay [9], 2.78 µM; in [2], 3.24 µM; in assay [3] it was 3.54 µM; in [4], 2.91 µM; in assay [5], 2.4 µM. In addition, the GI50 was 4.03 µM in assay [6], 3.84 µM in assay [7] and 2.63 µM in [8]. Further, the TGI is over 100 µM in assay [1]; over 100 µM in [9]; 42.2 µM in [2]; over 100 µM in assay [3]; over 100 µM in assay [4]; over 100 µM in assay [5]. Further, the TGI in assay [6], in [7] and in [8] was over 100 µM each time.
As for `Cn1cc(-c2csc(-c3c[nH]c4ccc(Br)cc34)n2)c2cnccc21`, the GI50 is 1.56 µM in [9], 2.11 µM in [2], 2.35 µM in [4] and 1.75 µM in assay [6]. Also, the TGI was 3.11 µM in assay [9], 7.91 µM in assay [2], 5.71 µM in assay [4] and 3.35 µM in [6].
As for `O=C(Nc1ccc(Cl)c(C(F)(F)F)c1)c1ccc(NC2=C(Cl)C(=O)N(Cc3ccccc3)C2=O)cc1`, the GI50 in [9] was 13.9 µM; in assay [2], 2.58 µM; in [3] it was 1.24 µM; in assay [10] it was 19.1 µM; in assay [4], 11.4 µM; in assay [5], 19.7 µM. Moreover, the GI50 in assay [6] was 17.9 µM; in [7] it was 2.15 µM. Besides, the TGI in assay [9] is 27.2 µM; in [2], 6.46 µM; in [3] it was 2.63 µM; in assay [10], 36.8 µM; in assay [4], 69.9 µM; in assay [5] it was 52.8 µM. Further, the TGI in assay [6] was found to be 31.8 µM; in assay [7], 5.23 µM.
Consider `CC(=O)N1CCC(=O)/C(=C/c2ccccc2)C1`, for which the TGI is over 100 µM in assay [1]; 32.2 µM in assay [9]; 32.9 µM in assay [3]; 37.8 µM in assay [4]; over 100 µM in assay [5]; 37.6 µM in [6]. For the same molecule, the values for the TGI in assay [7] and in assay [8] were 34.3 µM and over 100 µM, respectively.
Consider `Cc1ccc(S(=O)OCc2c(C)c(C)c(COS(=O)c3ccc(C)cc3)c(C)c2C)cc1` (configuration not stated), for which the TGI in [1], in [9], in assay [2], in [3], in [4] and in assay [5] was over 100 µM in each case. In addition, the TGI in assay [6], in [7] and in assay [8] was over 100 µM in each case.
Regarding `COc1cccc2c1C(=O)c1c(O)c3c(c(O)c1C2=O)C[C@@](O)(/C(C)=N/NC(=O)c1ccc(Cl)cc1)C[C@@H]3OC1CC(N)C(O)C(C)O1` (some centres not stated), the GI50 is 0.147 µM in assay [9]; 0.348 µM in [4]; 0.236 µM in assay [5]; 0.156 µM in assay [6]; 0.488 µM in assay [8]. Besides, the TGI in assay [9] turned out to be 1.49 µM; in assay [4], 2.31 µM; in [5], 2.2 µM; in assay [6], 3 µM; in assay [8], 4.55 µM.

For the origin of these results see PubChem BioAssay (NCI).
